Earlier results on three molecules are cited in patent publication US20060275504A1, “Methods and compositions for augmenting cancer chemotherapeutic agents” (TTY BIOPHARM COMPANY LIMITED, priority 2005, published 2006).

In the case of `S1[As]2S[As]3S[As]2S[As]13` [As4S4, tetraarsenic tetraslfide], the complete remission rates (arsenic-containing substances other than arsenic trioxide (Wang Z. Y. 2001)) is given as 84.9%.

Turning to `O=C1O[C@H]([C@@H](O)CO)C(O)=C1O` [Ascorbic acid], the “concentration exhibiting cytotoxic activity” value in the data set with MDA-MB-231 (MDA-MB-231, ascorbic acid alone) is recorded as 10^2-10^3 μM; with MCF-7 (MCF-7, ascorbic acid alone), 10^2-10^3 μM. The “effect on cytotoxicity of DOX, DDP and TX” value is “improved the cytotoxicity of DOX, DDP and TX significantly” with MDA-MB-231 (MDA-MB-231, ascorbic acid at non-cytotoxic (1 μM) and moderately cytotoxic (10^2 μM) concentration); “improved the cytotoxicity of DOX, DDP and TX significantly” in the data set on MCF-7 (MCF-7, ascorbic acid at non-cytotoxic (1 μM) and moderately cytotoxic (10^2 μM) concentration).

In the case of arsenic trioxide, the “complete remission (CR) rate” value (intravenously 10 mg/d, patients with relapsed acute promyelocytic leukemia) is on record as 90%.
